Assay results from patent US20020156236A1, “Binding sites for phosphotyrosine binding domains” (priority 1995, published 2002).
Where a SMILES comes first, the peptide text is derived from it.

Molecular target: T1, PTB domain/c-erbB2 binding (GST-PTB domain of SHC; c-erbB2 from SKBR3 lysate) (Homo sapiens, UniProt P29353)
T1 construct: GST-PTB domain fusion proteins were expressed from recombinant baculovirus in sf9 cells; made in house; host or cells: Sf9 cells (recombinant baculovirus) for GST-PTB; c-erbB2 endogenous in SKBR3 cell lysate
T1 sequence (P29353 156-341): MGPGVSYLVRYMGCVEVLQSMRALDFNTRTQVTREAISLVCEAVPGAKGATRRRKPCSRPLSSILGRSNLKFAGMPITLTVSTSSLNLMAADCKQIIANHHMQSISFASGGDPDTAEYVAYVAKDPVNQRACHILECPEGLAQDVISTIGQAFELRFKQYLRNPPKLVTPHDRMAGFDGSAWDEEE
Assay: biochemical
Settings: Inhibition (relative inhibition scale of IC50)

| Structure (SMILES) | IC50 [nM] |
| --- | --- |
| CC(C)C[C@H](NC(=O)[C@H](CC(N)=O)NC(=O)[C@H](CC(=O)O)NC(=O)[C@H](Cc1ccccc1)NC(=O)[C@H](C)NC(=O)[C@@H]1CCCN1C(=O)[C@H](CO)NC(=O)[C@H](Cc1ccccc1)NC(=O)[C@H](C)NC(=O)[C@@H]1CCCN1)C(=O)N[C@@H](Cc1ccc(O)cc1)C(=O)N[C@@H](Cc1ccc(OP(=O)(O)O)cc1)C(=O)N[C@@H](Cc1c[nH]c2ccccc12)C(=O)N[C@@H](CC(=O)O)C(=O)N[C@@H](C)C(=O)N[C@@H](CC(N)=O)C(=O)N[C@@H](CO)C(=O)N[C@@H](CO)C(=O)N[C@@H](CCC(=O)O)C(=O)N[C@@H](CCC(N)=O)C(=O)NCC(=O)O [PAFSPAFDNLY (pY) WDANSSEQG, PAFSPAFDNLY(pY)WDANSSEQG] (HELM PEPTIDE1{P.A.F.S.P.A.F.D.N.L.Y.[O=C([C@H](Cc1ccc(OP(=O)(O)O)cc1)N[*:1])[*:2]].W.D.A.N.S.S.E.Q.G}$$$$V2.0) | 500 to 5000 |
| CC(C)C[C@H](NC(=O)[C@H](CC(N)=O)NC(=O)[C@H](CC(=O)O)NC(=O)[C@H](Cc1ccccc1)NC(=O)[C@H](C)NC(=O)[C@@H]1CCCN1C(=O)[C@H](CO)NC(=O)[C@H](Cc1ccccc1)NC(=O)[C@H](C)NC(=O)[C@@H]1CCCN1)C(=O)N[C@@H](Cc1ccc(O)cc1)C(=O)N[C@@H](Cc1ccc(OP(=O)(O)O)cc1)C(=O)N[C@@H](Cc1c[nH]c2ccccc12)C(=O)N[C@@H](C)C(=O)N[C@@H](CCC(N)=O)C(=O)N[C@@H](CC(N)=O)C(=O)N[C@@H](CO)C(=O)N[C@@H](CO)C(=O)N[C@@H](CCC(=O)O)C(=O)N[C@@H](CCC(N)=O)C(=O)NCC(=O)O [PAFSPAFDNLY (pY) WAQNSSEQG, PAFSPAFDNLY(pY)WAQNSSEQG] (HELM PEPTIDE1{P.A.F.S.P.A.F.D.N.L.Y.[O=C([C@H](Cc1ccc(OP(=O)(O)O)cc1)N[*:1])[*:2]].W.A.Q.N.S.S.E.Q.G}$$$$V2.0) | 50 to 500 |
